Results as given in ChEMBL document CHEMBL5465560, “Selectivity Literature for EUbOPEN Chemogenomic Library” (2024).

Legend:
[1] = biological target: T1, Myosin light chain kinase family member 4 (Homo sapiens) (UniProt Q86YV6); details: at 10 µM
T1 sequence (whole entry): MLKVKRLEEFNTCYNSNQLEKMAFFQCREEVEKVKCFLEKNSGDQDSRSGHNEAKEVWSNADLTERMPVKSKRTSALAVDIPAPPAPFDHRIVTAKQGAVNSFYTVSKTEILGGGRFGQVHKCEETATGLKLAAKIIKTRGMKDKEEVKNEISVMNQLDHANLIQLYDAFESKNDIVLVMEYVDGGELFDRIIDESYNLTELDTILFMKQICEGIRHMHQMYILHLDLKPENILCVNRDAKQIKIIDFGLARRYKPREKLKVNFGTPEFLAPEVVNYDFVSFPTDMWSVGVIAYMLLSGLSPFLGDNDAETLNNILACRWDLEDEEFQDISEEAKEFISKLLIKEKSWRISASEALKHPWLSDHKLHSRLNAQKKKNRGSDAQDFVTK

[2] = biological target: T2, Dual specificity mitogen-activated protein kinase kinase 5 (Homo sapiens) (UniProt Q13163); assay: Selectivity interaction (KinomeScan (DiscoverX)) EUB0000045b MAP2K5
T2 sequence (whole entry): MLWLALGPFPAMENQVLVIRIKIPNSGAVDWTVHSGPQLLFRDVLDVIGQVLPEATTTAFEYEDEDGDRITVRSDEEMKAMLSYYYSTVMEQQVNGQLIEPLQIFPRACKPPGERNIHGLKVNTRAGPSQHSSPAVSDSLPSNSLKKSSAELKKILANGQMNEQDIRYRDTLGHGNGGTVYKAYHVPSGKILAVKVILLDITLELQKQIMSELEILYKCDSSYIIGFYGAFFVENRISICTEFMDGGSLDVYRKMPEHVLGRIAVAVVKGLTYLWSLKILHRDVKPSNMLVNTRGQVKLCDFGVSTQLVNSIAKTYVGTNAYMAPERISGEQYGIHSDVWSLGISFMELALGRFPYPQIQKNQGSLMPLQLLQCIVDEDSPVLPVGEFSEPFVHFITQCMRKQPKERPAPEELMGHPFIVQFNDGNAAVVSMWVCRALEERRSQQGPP

[3] = biological target: T3, Non-receptor tyrosine-protein kinase TYK2 (Homo sapiens, UniProt P29597); assay: Selectivity interaction (KinomeScan (DiscoverX)) EUB0001079a TYK2; details: at 1 µM
T3 sequence (P29597 whole entry): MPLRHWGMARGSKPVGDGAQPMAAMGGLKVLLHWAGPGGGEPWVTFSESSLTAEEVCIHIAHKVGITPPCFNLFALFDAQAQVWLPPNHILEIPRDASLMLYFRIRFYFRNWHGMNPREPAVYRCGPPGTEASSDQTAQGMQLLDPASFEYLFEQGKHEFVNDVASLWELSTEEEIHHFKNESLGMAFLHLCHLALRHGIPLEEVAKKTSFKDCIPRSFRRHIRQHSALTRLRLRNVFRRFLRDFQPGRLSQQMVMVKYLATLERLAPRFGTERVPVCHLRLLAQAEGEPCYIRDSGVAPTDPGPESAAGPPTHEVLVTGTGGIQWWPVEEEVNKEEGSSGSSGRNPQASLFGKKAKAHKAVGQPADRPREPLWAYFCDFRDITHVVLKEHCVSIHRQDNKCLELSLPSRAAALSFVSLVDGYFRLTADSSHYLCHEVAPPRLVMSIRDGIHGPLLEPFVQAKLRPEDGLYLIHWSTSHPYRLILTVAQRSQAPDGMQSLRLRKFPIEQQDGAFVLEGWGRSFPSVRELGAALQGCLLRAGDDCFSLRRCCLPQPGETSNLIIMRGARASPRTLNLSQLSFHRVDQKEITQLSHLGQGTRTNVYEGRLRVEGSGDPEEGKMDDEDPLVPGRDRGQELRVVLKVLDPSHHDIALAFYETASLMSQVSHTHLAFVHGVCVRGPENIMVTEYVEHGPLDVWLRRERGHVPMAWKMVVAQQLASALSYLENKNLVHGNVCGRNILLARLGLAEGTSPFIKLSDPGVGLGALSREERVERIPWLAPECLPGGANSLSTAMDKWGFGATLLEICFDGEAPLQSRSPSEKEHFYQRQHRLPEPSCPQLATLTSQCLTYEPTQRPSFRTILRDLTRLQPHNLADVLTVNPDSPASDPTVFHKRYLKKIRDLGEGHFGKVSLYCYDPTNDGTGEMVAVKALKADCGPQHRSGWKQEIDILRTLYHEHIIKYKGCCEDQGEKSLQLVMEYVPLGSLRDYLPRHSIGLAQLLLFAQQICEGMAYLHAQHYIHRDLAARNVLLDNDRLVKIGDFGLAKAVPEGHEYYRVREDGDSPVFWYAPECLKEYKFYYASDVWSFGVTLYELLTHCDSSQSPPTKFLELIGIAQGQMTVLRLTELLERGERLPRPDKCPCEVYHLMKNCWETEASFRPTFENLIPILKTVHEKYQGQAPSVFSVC

[4] = Selectivity interaction (KinomeScan (DiscoverX)) EUB0000666a CDK2H; details: at 10 µM
[5] = biological target: MAP kinase-interacting serine/threonine-protein kinase 1 (Homo sapiens) (UniProt Q9BUB5); details: at 10 µM
[6] = biological target: Ribosomal protein S6 kinase alpha-5 (Homo sapiens) (UniProt O75582); assay: Selectivity interaction (KinomeScan (DiscoverX)) EUB0001049a RPS6KA5; details: at 1 µM
Ribosomal protein S6 kinase alpha-5 (Homo sapiens), sequence (O75582 whole entry, looked up): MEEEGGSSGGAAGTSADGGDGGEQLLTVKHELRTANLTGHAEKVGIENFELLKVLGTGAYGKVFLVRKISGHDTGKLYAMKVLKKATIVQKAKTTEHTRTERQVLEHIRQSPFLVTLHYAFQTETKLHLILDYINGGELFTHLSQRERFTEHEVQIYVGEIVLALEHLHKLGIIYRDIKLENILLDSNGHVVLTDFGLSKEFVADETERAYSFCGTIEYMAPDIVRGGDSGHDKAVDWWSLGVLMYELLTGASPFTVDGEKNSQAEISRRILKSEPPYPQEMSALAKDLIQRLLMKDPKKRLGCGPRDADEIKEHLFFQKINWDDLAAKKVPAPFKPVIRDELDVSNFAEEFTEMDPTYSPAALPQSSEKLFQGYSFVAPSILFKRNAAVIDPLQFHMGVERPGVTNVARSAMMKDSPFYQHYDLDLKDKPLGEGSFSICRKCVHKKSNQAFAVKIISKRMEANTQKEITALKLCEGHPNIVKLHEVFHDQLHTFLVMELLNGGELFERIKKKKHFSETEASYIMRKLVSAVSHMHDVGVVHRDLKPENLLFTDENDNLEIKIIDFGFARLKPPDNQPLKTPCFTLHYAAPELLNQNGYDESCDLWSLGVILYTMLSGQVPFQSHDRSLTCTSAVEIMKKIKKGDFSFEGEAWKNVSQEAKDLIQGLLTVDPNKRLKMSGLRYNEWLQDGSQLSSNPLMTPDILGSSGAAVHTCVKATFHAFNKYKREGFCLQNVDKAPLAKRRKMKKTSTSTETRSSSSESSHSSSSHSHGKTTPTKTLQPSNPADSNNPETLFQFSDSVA

[7] = biological target: Epidermal growth factor receptor (Homo sapiens, UniProt P00533); assay: Selectivity interaction (Kinase panel (33PanQinase(R) Activity Assay)) EUB0000877a EGFR
[8] = biological target: Serine/threonine-protein kinase PAK 2 (Homo sapiens) (UniProt Q13177); assay: Selectivity interaction (Kinase panel (Eurofins)) EUB0001564a PAK2; details: at 1 µM
Serine/threonine-protein kinase PAK 2 (Homo sapiens), sequence (Q13177 whole entry): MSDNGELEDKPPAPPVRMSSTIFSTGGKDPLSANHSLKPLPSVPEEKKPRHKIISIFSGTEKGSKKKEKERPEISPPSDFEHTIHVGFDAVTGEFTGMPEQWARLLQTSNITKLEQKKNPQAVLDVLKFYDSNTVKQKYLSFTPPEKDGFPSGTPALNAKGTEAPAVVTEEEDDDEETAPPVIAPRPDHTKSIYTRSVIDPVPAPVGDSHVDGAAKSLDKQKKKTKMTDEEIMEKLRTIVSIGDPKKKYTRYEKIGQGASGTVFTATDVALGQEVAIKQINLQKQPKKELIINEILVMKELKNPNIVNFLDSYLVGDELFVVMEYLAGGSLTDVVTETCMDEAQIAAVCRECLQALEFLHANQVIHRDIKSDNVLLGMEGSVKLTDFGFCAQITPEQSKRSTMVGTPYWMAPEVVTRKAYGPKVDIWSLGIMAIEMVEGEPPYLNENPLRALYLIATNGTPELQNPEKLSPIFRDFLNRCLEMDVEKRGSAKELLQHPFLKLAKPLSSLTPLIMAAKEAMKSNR

[9] = Selectivity interaction (KinomeScan (DiscoverX)) EUB0001619a PKNB; details: at 1 µM
[10] = biological target: Rho-associated protein kinase 2 (Homo sapiens, UniProt O75116); assay: Selectivity interaction (KinomeScan (DiscoverX)) EUB0000607a ROCK2; details: at 10 µM
Rho-associated protein kinase 2, sequence (O75116 whole entry, looked up): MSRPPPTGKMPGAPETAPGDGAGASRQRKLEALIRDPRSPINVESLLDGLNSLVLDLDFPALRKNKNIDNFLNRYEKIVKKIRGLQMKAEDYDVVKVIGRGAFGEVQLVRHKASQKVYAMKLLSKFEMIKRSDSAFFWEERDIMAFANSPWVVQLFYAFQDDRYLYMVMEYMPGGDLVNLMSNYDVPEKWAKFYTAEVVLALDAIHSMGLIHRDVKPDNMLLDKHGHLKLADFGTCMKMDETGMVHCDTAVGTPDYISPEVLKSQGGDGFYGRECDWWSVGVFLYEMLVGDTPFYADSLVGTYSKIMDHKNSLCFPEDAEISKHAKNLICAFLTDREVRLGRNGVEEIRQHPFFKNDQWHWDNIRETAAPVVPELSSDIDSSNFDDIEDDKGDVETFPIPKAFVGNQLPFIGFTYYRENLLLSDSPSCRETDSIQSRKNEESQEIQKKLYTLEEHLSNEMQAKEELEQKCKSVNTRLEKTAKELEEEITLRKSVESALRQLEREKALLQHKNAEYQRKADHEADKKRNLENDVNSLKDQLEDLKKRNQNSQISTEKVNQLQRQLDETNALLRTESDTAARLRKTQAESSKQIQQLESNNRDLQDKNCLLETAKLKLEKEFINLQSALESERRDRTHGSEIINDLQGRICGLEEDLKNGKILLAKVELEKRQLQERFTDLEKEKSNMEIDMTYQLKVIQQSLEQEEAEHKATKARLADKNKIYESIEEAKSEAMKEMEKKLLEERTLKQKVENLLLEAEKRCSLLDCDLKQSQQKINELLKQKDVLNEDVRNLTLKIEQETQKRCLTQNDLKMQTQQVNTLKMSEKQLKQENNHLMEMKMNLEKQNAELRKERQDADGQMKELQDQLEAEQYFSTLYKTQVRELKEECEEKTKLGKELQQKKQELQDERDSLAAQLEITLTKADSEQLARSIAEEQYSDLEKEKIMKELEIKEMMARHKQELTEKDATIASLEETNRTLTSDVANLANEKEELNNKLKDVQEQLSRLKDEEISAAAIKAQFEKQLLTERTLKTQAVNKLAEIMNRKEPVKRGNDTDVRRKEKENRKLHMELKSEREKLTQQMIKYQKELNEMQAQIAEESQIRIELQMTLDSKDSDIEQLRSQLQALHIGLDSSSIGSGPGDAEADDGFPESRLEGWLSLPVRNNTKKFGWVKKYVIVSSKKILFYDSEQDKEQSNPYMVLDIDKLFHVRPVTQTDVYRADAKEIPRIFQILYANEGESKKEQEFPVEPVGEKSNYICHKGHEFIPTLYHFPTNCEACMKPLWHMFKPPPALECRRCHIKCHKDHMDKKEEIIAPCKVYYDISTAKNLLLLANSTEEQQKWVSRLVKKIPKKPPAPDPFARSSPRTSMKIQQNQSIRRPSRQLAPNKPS

[11] = biological target: Serine/threonine-protein kinase PAK 3 (Homo sapiens) (UniProt O75914); assay: Selectivity interaction (KinomeScan (DiscoverX)) EUB0000618a PAK3; details: at 10 µM
Serine/threonine-protein kinase PAK 3 (Homo sapiens), sequence (O75914 whole entry, looked up): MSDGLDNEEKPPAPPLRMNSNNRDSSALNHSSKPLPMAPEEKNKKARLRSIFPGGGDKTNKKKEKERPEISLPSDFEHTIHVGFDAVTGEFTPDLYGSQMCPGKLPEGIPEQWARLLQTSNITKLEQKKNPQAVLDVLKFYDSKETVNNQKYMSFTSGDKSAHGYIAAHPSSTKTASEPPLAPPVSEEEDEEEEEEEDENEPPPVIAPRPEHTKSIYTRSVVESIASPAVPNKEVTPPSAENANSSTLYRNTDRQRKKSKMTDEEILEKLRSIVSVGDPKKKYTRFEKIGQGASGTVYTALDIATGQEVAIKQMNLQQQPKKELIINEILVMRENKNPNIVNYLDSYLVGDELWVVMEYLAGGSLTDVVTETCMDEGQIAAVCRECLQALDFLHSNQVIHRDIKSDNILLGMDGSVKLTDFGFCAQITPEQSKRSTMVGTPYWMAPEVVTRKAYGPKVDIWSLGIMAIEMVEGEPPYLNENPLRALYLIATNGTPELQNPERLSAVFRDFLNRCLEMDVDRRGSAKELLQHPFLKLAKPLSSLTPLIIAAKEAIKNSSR

[12] = biological target: Serine/threonine-protein kinase 16 (Homo sapiens, UniProt O75716); assay: Selectivity interaction (KinomeScan (DiscoverX)) EUB0000618a STK16; details: at 10 µM
Serine/threonine-protein kinase 16, sequence (O75716 whole entry): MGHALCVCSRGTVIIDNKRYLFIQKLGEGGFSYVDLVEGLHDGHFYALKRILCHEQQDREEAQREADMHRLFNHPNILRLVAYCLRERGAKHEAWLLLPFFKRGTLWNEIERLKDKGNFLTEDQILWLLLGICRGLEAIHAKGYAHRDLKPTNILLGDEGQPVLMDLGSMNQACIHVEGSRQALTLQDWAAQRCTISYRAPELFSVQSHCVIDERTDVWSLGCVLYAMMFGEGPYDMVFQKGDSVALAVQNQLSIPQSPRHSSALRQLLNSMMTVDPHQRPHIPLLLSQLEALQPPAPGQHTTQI

[13] = biological target: T3, Non-receptor tyrosine-protein kinase TYK2; assay: Selectivity interaction (KinomeScan (DiscoverX)) EUB0000655a TYK2; details: at 10 µM
[14] = biological target: Calcium/calmodulin-dependent protein kinase type II subunit gamma (Homo sapiens) (UniProt Q13555); details: at 10 µM
[15] = biological target: T4, Inhibitor of nuclear factor kappa-B kinase subunit epsilon (Homo sapiens) (UniProt Q14164); assay: Selectivity interaction (Ambit KINOMEscan and KiNATiv profiling in Jurkat cells) EUB0000090b IKBKE; type: cell-based; details: at 1 µM
T4 sequence (whole entry): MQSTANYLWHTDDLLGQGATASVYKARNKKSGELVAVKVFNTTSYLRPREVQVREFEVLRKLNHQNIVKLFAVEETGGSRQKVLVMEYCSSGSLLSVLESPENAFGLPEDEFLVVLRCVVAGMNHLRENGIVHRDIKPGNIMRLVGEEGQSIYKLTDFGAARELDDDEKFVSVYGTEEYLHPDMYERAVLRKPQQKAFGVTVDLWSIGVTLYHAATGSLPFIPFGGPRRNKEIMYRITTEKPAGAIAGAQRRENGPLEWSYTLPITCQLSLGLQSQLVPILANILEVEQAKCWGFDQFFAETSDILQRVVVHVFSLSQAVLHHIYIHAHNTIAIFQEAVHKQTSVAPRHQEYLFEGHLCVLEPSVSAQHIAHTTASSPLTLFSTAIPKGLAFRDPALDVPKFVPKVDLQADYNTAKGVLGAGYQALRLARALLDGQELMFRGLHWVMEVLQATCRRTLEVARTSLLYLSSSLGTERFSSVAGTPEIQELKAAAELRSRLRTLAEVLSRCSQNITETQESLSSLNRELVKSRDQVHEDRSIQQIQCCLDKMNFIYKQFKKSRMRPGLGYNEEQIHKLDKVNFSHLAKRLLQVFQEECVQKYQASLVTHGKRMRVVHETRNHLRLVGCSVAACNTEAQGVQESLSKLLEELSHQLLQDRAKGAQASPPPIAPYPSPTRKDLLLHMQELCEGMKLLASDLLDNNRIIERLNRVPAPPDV

COCC(=O)NC/C=C/c1ccc2ncnc(Nc3ccc(Oc4ccc(C)nc4)c(C)c3)c2c1 [CP-724714]
% of control [1]: 100%

C=CC(=O)Nc1cc(-n2c(=O)ccc3cnc4ccc(-c5ccc(NS(C)(=O)=O)cc5)cc4c32)ccc1C
% of control ([2]; at 1 µM): 100%
% of control ([2]; at 10 µM): 64%

Nc1cnc(N2CCc3cc(S(=O)(=O)Nc4c(F)cc(Cl)cc4F)cc(N4CCCC4=O)c32)nc1 [TP-020n]
% of control [3]: 100%

O=C(NOC[C@H](O)CO)c1ccc(F)c(F)c1Nc1ccc(I)cc1F
% of control [4]: 100%

Cc1cc([C@@H](C)Nc2ccccc2C(=O)O)c2nc(N3CCOCC3)cc(=O)n2c1 [AZD-6482]
% of control [5]: 92%

COc1cc(Nc2nc(C)cc(-c3cnn4nc(OC)ccc34)n2)cc(C(F)(F)F)c1
% of control [6]: 95%

CCC(=O)N1CC[C@H](Nc2ncnc3c2CN(c2cnc(OC)c(C(F)(F)F)c2)CC3)C1 [LENIOLISIB]
IC50 [7]: > 10 µM

CC[C@@H](Nc1c(C#N)c(-c2ccc(-c3cccc(C)c3F)cc2)nc2cnccc12)C(=O)O [BAY-091]
% of inhibition [8]: 24.9%

N#Cc1cccc(-c2c[nH]c3ncnc(N4CCOCC4)c23)c1
% of control [9]: 47%

CNC(=O)Nc1ccc(-c2nc(N3CC4CCC(C3)O4)c3cnn(C4CCC5(CC4)OCCO5)c3n2)cc1
% of control [10]: 100%

O[C@H]1CC[C@H](Nc2ncc3nc(Nc4c(F)cc(F)cc4F)n([C@H]4CCOC4)c3n2)CC1
% of control [11]: 100%
% of control [12]: 60%

CN(C)CCOc1ccc(-c2nc(-c3ccncc3)c(-c3ccc4c(c3)CC/C4=N\O)[nH]2)cc1
% of control [13]: 52%

CCN(CC)CCCCNc1ncc2cc(-c3cc(OC)cc(OC)c3)c(NC(=O)NC(C)(C)C)nc2n1
% of control [14]: 100%

CN(C)C/C=C/C(=O)Nc1ccc(C(=O)N2CCCC(Nc3ncc(Cl)c(-c4c[nH]c5ccccc45)n3)C2)cc1 (stereo unspecified)
% of control [15]: 100%
